In this test the target is T1, Serine protease 1 (Bos taurus, UniProt P00760).
T1 sequence (P00760 whole entry): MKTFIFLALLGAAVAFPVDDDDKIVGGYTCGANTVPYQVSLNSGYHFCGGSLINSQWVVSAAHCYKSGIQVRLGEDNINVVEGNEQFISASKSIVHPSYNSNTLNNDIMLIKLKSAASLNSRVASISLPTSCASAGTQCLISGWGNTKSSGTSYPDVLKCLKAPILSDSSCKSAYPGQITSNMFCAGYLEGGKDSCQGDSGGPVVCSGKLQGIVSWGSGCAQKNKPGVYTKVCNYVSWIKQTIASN
Description: Serine Protease Inhibition Assay. The protocol:
The enzyme reactions were initiated by the addition of substrate, and the color developed from the release of p-nitroanilide from each chromogenic substrate was monitored continuously for 5 min at 405 nm on a microtiter plate reader. […] The apparent Ki values were then calculated according to the Cheng-Prusoff equation: Ki = IC50/1 + [S]/Km.

Broadly, the Ki is the equilibrium dissociation constant of an inhibitor or competing ligand from its target. Read a low Ki as tighter binding. `CCOc1cc(-c2ccccc2)cc(C(Nc2ccc(C(=N)N)cc2)C(=O)O)c1` (stereo unspecified) [2-[(4-carbamimidoylphenyl)amino]-2-(3-ethoxy-5-phenylphenyl)acetic acid] registered a Ki of more than 68 µM.

The record behind these values is BindingDB's records for doi:10.1016/j.bmcl.2005.04.079 (F. Hoffmann-La Roche, 2005).
